Reference: PubChem BioAssay AID1963450 (Molecular Pharmacology Branch, DTP, NCI, 2024)

System: 556581-035-R-J1-PDC complex spheroid growth
Experiment: Anticancer human tumor 556581-035-R-J1-PDC patient-derived ovarian carcinoma cell line growth inhibition [Asc]
Details: for IC50: curve of first compound; for viability, T/C: stronger effect = lower value
Summary of the method: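 Spheroid model: tumor line + HUVEC + hMSC. Single agents and combinations; top conc. at/near clinical Cmax (10 microM if undetermined), half-log dilutions. DMSO stocks at 800-fold test concentration.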
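Also: spheroids exposed to agents for 7 days before viability read.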

Structure (SMILES): Cc1nc(N2CCC3(CC2)COC(C)C3N)c(CO)nc1Sc1ccnc(N)c1Cl (centres undefined) + CCN1C(C(=O)NC23CCC(C(=O)O)(CC2)CC3)C(c2cccc(Cl)c2F)C2(C(=O)Nc3cc(Cl)ccc32)C12CCCCC2
- IC50 (second compound 0.03 µM): 2240 nM
- IC50 (second compound 0.0949 µM): 1530 nM
- IC50 (second compound 0.3 µM): > 3000 nM
- IC50 (second compound 0.949 µM): 2430 nM
- IC50 (second compound 3 µM): 847 nM
- viability, T/C (second compound 0.03 µM, first compound 0.00949 µM): 84.7%
- viability, T/C (second compound 0.03 µM, first compound 0.03 µM): 82.1%
- viability, T/C (second compound 0.03 µM, first compound 0.0949 µM): 74%
- viability, T/C (second compound 0.03 µM, first compound 0.3 µM): 62.4%
- viability, T/C (second compound 0.03 µM, first compound 0.949 µM): 64.3%
- viability, T/C (second compound 0.03 µM, first compound 3 µM): 45.1%
- viability, T/C (second compound 0.0949 µM, first compound 0.00949 µM): 88.9%
- viability, T/C (second compound 0.0949 µM, first compound 0.03 µM): 91.2%
- viability, T/C (second compound 0.0949 µM, first compound 0.0949 µM): 88.1%
- viability, T/C (second compound 0.0949 µM, first compound 0.3 µM): 66.5%
- viability, T/C (second compound 0.0949 µM, first compound 0.949 µM): 60.6%
- viability, T/C (second compound 0.0949 µM, first compound 3 µM): 39.4%
- viability, T/C (second compound 0.3 µM, first compound 0.00949 µM): 85.7%
- viability, T/C (second compound 0.3 µM, first compound 0.03 µM): 95.7%
- viability, T/C (second compound 0.3 µM, first compound 0.0949 µM): 72.8%
- viability, T/C (second compound 0.3 µM, first compound 0.3 µM): 73.7%
- viability, T/C (second compound 0.3 µM, first compound 0.949 µM): 49.5%
- viability, T/C (second compound 0.3 µM, first compound 3 µM): 58.9%
- viability, T/C (second compound 0.949 µM, first compound 0.00949 µM): 93.4%
- viability, T/C (second compound 0.949 µM, first compound 0.03 µM): 82.3%
- viability, T/C (second compound 0.949 µM, first compound 0.0949 µM): 80.9%
- viability, T/C (second compound 0.949 µM, first compound 0.3 µM): 68.4%
- viability, T/C (second compound 0.949 µM, first compound 0.949 µM): 54.7%
- viability, T/C (second compound 0.949 µM, first compound 3 µM): 49.4%
- viability, T/C (second compound 3 µM, first compound 0.00949 µM): 88.4%
- viability, T/C (second compound 3 µM, first compound 0.03 µM): 78.7%
- viability, T/C (second compound 3 µM, first compound 0.0949 µM): 79.7%
- viability, T/C (second compound 3 µM, first compound 0.3 µM): 60.8%
- viability, T/C (second compound 3 µM, first compound 0.949 µM): 45.7%
- viability, T/C (second compound 3 µM, first compound 3 µM): 50.6%

Structure (SMILES): C#Cc1c(F)ccc2cc(O)cc(-c3ncc4c(N5CC6CCC(C5)N6)nc(OCC56CCCN5CC(F)C6)nc4c3F)c12 (centres undefined) + CNC(C)C(=O)NC1CN(S(=O)(=O)c2cccc(S(=O)(=O)N3CCC4CCC(C(=O)NC(c5ccccc5)c5ccccc5)N4C(=O)C(NC(=O)C(C)NC)C3)c2)CCC2CCC(C(=O)NC(c3ccccc3)c3ccccc3)N2C1=O
- IC50 (second compound 0.00316 µM): > 10000 nM
- IC50 (second compound 0.01 µM): > 10000 nM
- IC50 (second compound 0.0316 µM): > 10000 nM
- IC50 (second compound 0.1 µM): > 10000 nM
- IC50 (second compound 0.316 µM): 6870 nM
- IC50 (second compound 1 µM): 5290 nM
- viability, T/C (second compound 0.00316 µM, first compound 0.0316 µM): 101%
- viability, T/C (second compound 0.00316 µM, first compound 0.1 µM): 103%
- viability, T/C (second compound 0.00316 µM, first compound 0.316 µM): 103%
- viability, T/C (second compound 0.00316 µM, first compound 1 µM): 99.6%
- viability, T/C (second compound 0.00316 µM, first compound 3.16 µM): 98%
- viability, T/C (second compound 0.00316 µM, first compound 10 µM): 86.8%
- viability, T/C (second compound 0.01 µM, first compound 0.0316 µM): 105%
- viability, T/C (second compound 0.01 µM, first compound 0.1 µM): 96.6%
- viability, T/C (second compound 0.01 µM, first compound 0.316 µM): 100%
- viability, T/C (second compound 0.01 µM, first compound 1 µM): 107%
- viability, T/C (second compound 0.01 µM, first compound 3.16 µM): 87.6%
- viability, T/C (second compound 0.01 µM, first compound 10 µM): 71%
- viability, T/C (second compound 0.0316 µM, first compound 0.0316 µM): 96.7%
- viability, T/C (second compound 0.0316 µM, first compound 0.1 µM): 95.9%
- viability, T/C (second compound 0.0316 µM, first compound 0.316 µM): 88.5%
- viability, T/C (second compound 0.0316 µM, first compound 1 µM): 87.7%
- viability, T/C (second compound 0.0316 µM, first compound 3.16 µM): 87%
- viability, T/C (second compound 0.0316 µM, first compound 10 µM): 60.5%
- viability, T/C (second compound 0.1 µM, first compound 0.0316 µM): 92%
- viability, T/C (second compound 0.1 µM, first compound 0.1 µM): 88.8%
- viability, T/C (second compound 0.1 µM, first compound 0.316 µM): 76.8%
- viability, T/C (second compound 0.1 µM, first compound 1 µM): 78%
- viability, T/C (second compound 0.1 µM, first compound 3.16 µM): 77.9%
- viability, T/C (second compound 0.1 µM, first compound 10 µM): 62%
- viability, T/C (second compound 0.316 µM, first compound 0.0316 µM): 82.6%
- viability, T/C (second compound 0.316 µM, first compound 0.1 µM): 65.4%
- viability, T/C (second compound 0.316 µM, first compound 0.316 µM): 75.3%
- viability, T/C (second compound 0.316 µM, first compound 1 µM): 66.4%
- viability, T/C (second compound 0.316 µM, first compound 3.16 µM): 62.8%
- viability, T/C (second compound 0.316 µM, first compound 10 µM): 44%
- viability, T/C (second compound 1 µM, first compound 0.0316 µM): 65.2%
- viability, T/C (second compound 1 µM, first compound 0.1 µM): 64.3%
- viability, T/C (second compound 1 µM, first compound 0.316 µM): 65.6%
- viability, T/C (second compound 1 µM, first compound 1 µM): 75.4%
- viability, T/C (second compound 1 µM, first compound 3.16 µM): 57.9%
- viability, T/C (second compound 1 µM, first compound 10 µM): 36.3%

Structure (SMILES): Cc1nc(N2CCC3(CC2)COC(C)C3N)c(CO)nc1Sc1ccnc(N)c1Cl (centres undefined) + CNC(C)C(=O)NC1CN(S(=O)(=O)c2cccc(S(=O)(=O)N3CCC4CCC(C(=O)NC(c5ccccc5)c5ccccc5)N4C(=O)C(NC(=O)C(C)NC)C3)c2)CCC2CCC(C(=O)NC(c3ccccc3)c3ccccc3)N2C1=O
- IC50 (second compound 0.00316 µM): > 3000 nM
- IC50 (second compound 0.01 µM): > 3000 nM
- IC50 (second compound 0.0316 µM): 1960 nM
- IC50 (second compound 0.1 µM): 1210 nM
- IC50 (second compound 0.316 µM): 278 nM
- IC50 (second compound 1 µM): 184 nM
- viability, T/C (second compound 0.00316 µM, first compound 0.00949 µM): 107%
- viability, T/C (second compound 0.00316 µM, first compound 0.03 µM): 95.9%
- viability, T/C (second compound 0.00316 µM, first compound 0.0949 µM): 90.2%
- viability, T/C (second compound 0.00316 µM, first compound 0.3 µM): 79.4%
- viability, T/C (second compound 0.00316 µM, first compound 0.949 µM): 80%
- viability, T/C (second compound 0.00316 µM, first compound 3 µM): 49.1%
- viability, T/C (second compound 0.01 µM, first compound 0.00949 µM): 107%
- viability, T/C (second compound 0.01 µM, first compound 0.03 µM): 94.5%
- viability, T/C (second compound 0.01 µM, first compound 0.0949 µM): 76%
- viability, T/C (second compound 0.01 µM, first compound 0.3 µM): 73.8%
- viability, T/C (second compound 0.01 µM, first compound 0.949 µM): 64.9%
- viability, T/C (second compound 0.01 µM, first compound 3 µM): 53.2%
- viability, T/C (second compound 0.0316 µM, first compound 0.00949 µM): 91.4%
- viability, T/C (second compound 0.0316 µM, first compound 0.03 µM): 81.8%
- viability, T/C (second compound 0.0316 µM, first compound 0.0949 µM): 75.3%
- viability, T/C (second compound 0.0316 µM, first compound 0.3 µM): 58.5%
- viability, T/C (second compound 0.0316 µM, first compound 0.949 µM): 59%
- viability, T/C (second compound 0.0316 µM, first compound 3 µM): 45.9%
- viability, T/C (second compound 0.1 µM, first compound 0.00949 µM): 86.3%
- viability, T/C (second compound 0.1 µM, first compound 0.03 µM): 78.9%
- viability, T/C (second compound 0.1 µM, first compound 0.0949 µM): 71.8%
- viability, T/C (second compound 0.1 µM, first compound 0.3 µM): 55.4%
- viability, T/C (second compound 0.1 µM, first compound 0.949 µM): 58.4%
- viability, T/C (second compound 0.1 µM, first compound 3 µM): 40.4%
- viability, T/C (second compound 0.316 µM, first compound 0.00949 µM): 74.8%
- viability, T/C (second compound 0.316 µM, first compound 0.03 µM): 63.4%
- viability, T/C (second compound 0.316 µM, first compound 0.0949 µM): 59.4%
- viability, T/C (second compound 0.316 µM, first compound 0.3 µM): 46.2%
- viability, T/C (second compound 0.316 µM, first compound 0.949 µM): 46.3%
- viability, T/C (second compound 0.316 µM, first compound 3 µM): 38.3%
- viability, T/C (second compound 1 µM, first compound 0.00949 µM): 61.2%
- viability, T/C (second compound 1 µM, first compound 0.03 µM): 61.9%
- viability, T/C (second compound 1 µM, first compound 0.0949 µM): 51%
- viability, T/C (second compound 1 µM, first compound 0.3 µM): 46.8%
- viability, T/C (second compound 1 µM, first compound 0.949 µM): 40.8%
- viability, T/C (second compound 1 µM, first compound 3 µM): 28.9%
